# Test results taken from paper PMC11277489, “Novel Piperazine Derivatives of Vindoline as Anticancer Agents” (International Journal of Molecular Sciences, 2024).
# Tests used:
# Assay type in all cases: cell-based
# [1] = tested on: SNB-19; test: NCI60 five-dose screen, CNS Cancer; details: Homo sapiens; SNB-19, CNS Cancer; five-dose screen; read-out: GI50
# [2] = tested on: DU-145; test: NCI60 five-dose screen, Prostate Cancer; details: Homo sapiens; DU-145, Prostate Cancer; five-dose screen; read-out: GI50
# [3] = tested on: U251; test: NCI60 five-dose screen, CNS Cancer; details: Homo sapiens, U-251; U251, CNS Cancer; five-dose screen; read-out: GI50
# [4] = tested on: T-47D; test: NCI60 five-dose screen, Breast Cancer; details: Homo sapiens, T47D; T-47D, Breast Cancer; five-dose screen; read-out: GI50
# [5] = tested on: SF-268; test: NCI60 five-dose screen, CNS Cancer; details: Homo sapiens; SF-268, CNS Cancer; five-dose screen; read-out: GI50
# [6] = tested on: HCT-116; test: NCI60 five-dose screen, Colon Cancer; details: Homo sapiens; HCT-116, Colon Cancer; five-dose screen; read-out: GI50
# [7] = tested on: COLO 205; test: NCI60 five-dose screen, Colon Cancer; details: Homo sapiens; COLO 205, Colon Cancer; five-dose screen; read-out: GI50
# [8] = tested on: TK-10; test: NCI60 five-dose screen, Renal Cancer; details: Homo sapiens; TK-10, Renal Cancer; five-dose screen; read-out: GI50
# [9] = tested on: NCI-H226; test: NCI60 five-dose screen, Non-small Cell Lung Cancer; details: Homo sapiens; NCI-H226, Non-small Cell Lung Cancer; five-dose screen; read-out: GI50
# [10] = tested on: LOX IMVI; test: NCI60 five-dose screen, Melanoma; details: Homo sapiens, Melanoma, five-dose screen, read-out: GI50
# [11] = tested on: BT-549; test: NCI60 five-dose screen, Breast Cancer; details: Homo sapiens; BT-549, Breast Cancer; five-dose screen; read-out: GI50
# [12] = tested on: SK-OV-3; test: NCI60 five-dose screen, Ovarian Cancer; details: Homo sapiens; SK-OV-3, Ovarian Cancer; five-dose screen; read-out: GI50
# [13] = tested on: SK-MEL-28; test: NCI60 five-dose screen, Melanoma; details: Homo sapiens; SK-MEL-28, Melanoma; five-dose screen; read-out: GI50
# [14] = tested on: RPMI-8226; test: NCI60 five-dose screen, Leukemia; details: Homo sapiens; RPMI-8226, Leukemia; five-dose screen; read-out: GI50
# [15] = tested on: K-562; test: NCI60 five-dose screen, Leukemia; details: Homo sapiens, K562; K-562, Leukemia; five-dose screen; read-out: GI50
# [16] = tested on: SF-295; test: NCI60 five-dose screen, CNS Cancer; details: Homo sapiens; SF-295, CNS Cancer; five-dose screen; read-out: GI50
# [17] = tested on: 786–0; test: NCI60 five-dose screen, Renal Cancer; details: Homo sapiens; 786–0, Renal Cancer; five-dose screen; read-out: GI50
# [18] = tested on: PC-3; test: NCI60 five-dose screen, Prostate Cancer; details: Homo sapiens; PC-3, Prostate Cancer; five-dose screen; read-out: GI50
# [19] = tested on: SR; test: NCI60 five-dose screen, Leukemia; details: Homo sapiens, Leukemia, five-dose screen, read-out: GI50
# [20] = tested on: OVCAR-3; test: NCI60 five-dose screen, Ovarian Cancer; details: Homo sapiens; OVCAR-3, Ovarian Cancer; five-dose screen; read-out: GI50
# [21] = tested on: SN12C; test: NCI60 five-dose screen, Renal Cancer; details: Homo sapiens, Renal Cancer, five-dose screen, read-out: GI50
# [22] = tested on: SNB-75; test: NCI60 five-dose screen, CNS Cancer; details: Homo sapiens; SNB-75, CNS Cancer; five-dose screen; read-out: GI50
# [23] = tested on: HT29; test: NCI60 five-dose screen, Colon Cancer; details: Homo sapiens, HT-29; HT29, Colon Cancer; five-dose screen; read-out: GI50
# [24] = tested on: NCI-H522; test: NCI60 five-dose screen, Non-small Cell Lung Cancer; details: Homo sapiens; NCI-H522, Non-small Cell Lung Cancer; five-dose screen; read-out: GI50
# [25] = tested on: MDA-MB-435; test: NCI60 five-dose screen, Melanoma; details: Homo sapiens; MDA-MB-435, Melanoma; five-dose screen; read-out: GI50
# [26] = tested on: KM12; test: NCI60 five-dose screen, Colon Cancer; details: Homo sapiens; KM12, Colon Cancer; five-dose screen; read-out: GI50
# [27] = tested on: SK-MEL-2; test: NCI60 five-dose screen, Melanoma; details: Homo sapiens; SK-MEL-2, Melanoma; five-dose screen; read-out: GI50
# [28] = tested on: SF-539; test: NCI60 five-dose screen, CNS Cancer; details: Homo sapiens; SF-539, CNS Cancer; five-dose screen; read-out: GI50
# [29] = tested on: MDA-MB-468; test: NCI60 five-dose screen, Breast Cancer; details: Homo sapiens; MDA-MB-468, Breast Cancer; five-dose screen; read-out: GI50
# [30] = tested on: A498; test: NCI60 five-dose screen, Renal Cancer; details: Homo sapiens; A498, Renal Cancer; five-dose screen; read-out: GI50
# [31] = tested on: UO-31; test: NCI60 five-dose screen, Renal Cancer; details: Homo sapiens; UO-31, Renal Cancer; five-dose screen; read-out: GI50
# [32] = tested on: HCT-15; test: NCI60 five-dose screen, Colon Cancer; details: Homo sapiens; HCT-15, Colon Cancer; five-dose screen; read-out: GI50
# [33] = tested on: IGROV1; test: NCI60 five-dose screen, Ovarian Cancer; details: Homo sapiens, IGROV-1; IGROV1, Ovarian Cancer; five-dose screen; read-out: GI50
# [34] = tested on: OVCAR-8; test: NCI60 five-dose screen, Ovarian Cancer; details: Homo sapiens; OVCAR-8, Ovarian Cancer; five-dose screen; read-out: GI50
# [35] = tested on: HS 578T; test: NCI60 five-dose screen, Breast Cancer; details: Homo sapiens; HS 578T, Breast Cancer; five-dose screen; read-out: GI50
# [36] = tested on: RXF 393; test: NCI60 five-dose screen, Renal Cancer; details: Homo sapiens, RXF 393, Renal Cancer
# [37] = tested on: EKVX; test: NCI60 five-dose screen, Non-small Cell Lung Cancer; details: Homo sapiens, Non-small Cell Lung Cancer, five-dose screen, read-out: GI50
smiles,measurement,setting,value
CC[C@]12C=CCN3CC[C@@]4(c5ccc(OC)cc5N(C)[C@H]4[C@@](O)(C(=O)OC)[C@@H]1OC(=O)CCCN1CCN(Cc4ccc(F)cc4)CC1)[C@@H]32 [Compound 24],GI50,[1],11.5 µM
same,GI50,[2],10.5 µM
same,GI50,[3],7.59 µM
same,GI50,[4],5.62 µM
same,GI50,[5],5.25 µM
same,GI50,[6],5.62 µM
same,GI50,[7],1.95 µM
same,GI50,[8],4.9 µM
same,GI50,[9],10.5 µM
same,GI50,[10],5.01 µM
same,GI50,[11],7.24 µM
same,GI50,[12],12 µM
same,GI50,[13],4.68 µM
same,GI50,[14],4.17 µM
same,GI50,[15],2.4 µM
same,GI50,[16],12.6 µM
same,GI50,[17],6.31 µM
same,GI50,[18],4.17 µM
same,GI50,[19],3.47 µM
same,GI50,[20],10.7 µM
same,GI50,[21],8.32 µM
same,GI50,[22],1.12 µM
same,GI50,[23],3.8 µM
same,GI50,[24],13.8 µM
same,GI50,[25],5.5 µM
same,GI50,[26],10.5 µM
same,GI50,[27],15.1 µM
same,GI50,[28],10.5 µM
same,GI50,[29],1.74 µM
same,GI50,[30],12.9 µM
same,GI50,[31],3.09 µM
same,GI50,[32],5.13 µM
same,GI50,[33],2.51 µM
same,GI50,[34],14.5 µM
same,GI50,[35],4.07 µM
same,GI50,[36],1 µM
same,GI50,[37],12 µM
